Experimental data published in patent US20230031406A1, “COMPOUNDS AND COMPOSITIONS FOR TREATING CONDITIONS ASSOCIATED WITH NLRP ACTIVITY” (Novartis AG, priority 2018, published 2023).
pIC50: −log10 of the molar value. Read-outs that look alike come from different tables or passages of the source.

Test system: PMA-differentiated THP-1 cells
Assay: IL-1β production in PMA-differentiated THP-1 cells stimulated with gramicidin (hTHP-1 assay containing 2% fetal bovine serum; Procedures 1 and 2)
Format: cell-based, human
Conditions: 2% fetal bovine serum
Summary of the method: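 IL-1β release from PMA-differentiated THP-1 macrophage-like cells was triggered by 5 μM gramicidin for 2 h after 1 h compound exposure, then measured by HTRF.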

[1] = Table B2, class symbols, read-out: hTHP-1 IC50
[2] = Table B1, class symbols, read-out: Average IC50 of compounds in hTHP-1 assay: hTHP-1 IC50
[3] = Homo sapiens, THP-1, Table B2, class symbols, read-out: hTHP-1 IC50
[4] = Homo sapiens, THP-1, Table B2, numeric bounds, read-out: hTHP-1 IC50
[5] = Table B3, hTHP-1 assay, class symbols, read-out: IC50
[6] = Homo sapiens, THP-1, Table B1, numeric bounds, read-out: Average IC50 of compounds in hTHP-1 assay: hTHP-1 IC50
[7] = Homo sapiens, THP-1, Table B1, class symbols, read-out: Average IC50 of compounds in hTHP-1 assay: hTHP-1 IC50
[8] = Homo sapiens, THP-1, Table B3, hTHP-1 assay, numeric values, read-out: IC50

`Cc1c(C(C)C)nc2c(c1NC(=O)N=S(N)(=O)c1cnc(C(C)(C)O)s1)CCC2` (single isomer, unassigned) [Compound 650a, (R) or (S)-2-(2-Hydroxypropan-2-yl)-N′-((2-isopropyl-3-methyl-6,7-dihydro-5H-cyclopenta[b]pyridin-4-yl)carbamoyl)thiazole-5-sulfonimidamide] was tested. Which pIC50 [1] did it give?
Its pIC50 is 6.70 to 7.40.

How did the pIC50 [2] turn out when `CC1CCc2c1nc1c(c2NC(=O)N=S(N)(=O)c2cc(C(C)(C)O)cs2)CCC1` (single isomer, unassigned) [Compound 141bb, (S,R) or (S,S)-4-(2-hydroxypropan-2-yl)-N′-((3-methyl-1,2,3,5,6,7-hexahy-drodicyclopenta[b,e]pyridin-8-yl)carbamoyl)thiophene-2-sulfonimidamide] was run?
The pIC50 was 4.52 to 5.30.

With `CC1(C)CCc2c1nc1c(c2NC(=O)N=S(N)(=O)c2ccn(-c3ccccc3)n2)CCC1` (centres unmarked) [Compound 659, N′-((3,3-dimethyl-1,2,3,5,6,7-hexahydrodicyclopenta[b,e]pyridin-8-yl)carbamoyl)-1-phenyl-1H-pyrazole-3-sulfonimidamide] as the molecule, how does the pIC50 [3] read?
The pIC50 was 5.30 to 6.00.

How did the pIC50 [4] turn out when `CC1CCc2c1nc1c(c2NC(=O)N=S(N)(=O)c2cnn(C(C)C)c2)CCC1` (single isomer, unassigned) [Compound 171a, (S, R) and (S, S) or (R, S) and (R, R)-1-Isopropyl-N′-((3-methyl-1,2,3,5,6,7-hexahydrodicyclopenta [b,e]pyridin-8-yl)carbamoyl)-1H-pyrazole-4-sulfonimidamide] was run?
The pIC50 was < 4.52.

With `CCn1ccc(S(N)(=O)=NC(=O)Nc2c3c(nc4c2CCC42CC2)CCC3)n1` (single isomer, unassigned) [Example 688, (S) or (R)-1-Ethyl-N′-((1′,5′,6′,7′-tetrahydro-2′H-spiro[cyclopropane-1,3′-dicyclopenta[b,e]pyridin]-8′-yl)carbamoyl)-1H-pyrazole-3-sulfonimidamide] as the molecule, how does the pIC50 [5] read?
The pIC50 was 4.52 to 5.30.

`CC1CCc2c1nc1c(c2NC(=O)N=S(N)(=O)c2cn(C(C)C)cn2)CCC1` (single isomer, unassigned) [Compound 660a, (R, S) or (S, S) or (S, R) or (R, R)-1-Isopropyl-N′-((3-metliyl-1,2,3,5,6,7-hexahydrodicyclopenta [b,e]pyridin-8-yl)carbamoyl)-1H-imidazole-4-sulfonimidamide] was tested. Which pIC50 (Table B2, numeric bounds, read-out: hTHP-1 IC50) did it give?
The pIC50 was < 4.52.

With `CCc1cc(NC(=O)N=S(N)(=O)c2cnc(C(C)(C)O)s2)c2c(n1)CCC2` (centres unmarked) [Compound 137, N′-((2-ethyl-6,7-dihydro-5H-cyclopenta[b]pyridin-4-yl)carbamoyl)-2-(2-hydroxypropan-2-yl)thiazole-5-sulfonimidamide] as the molecule, how does the pIC50 [6] read?
Its pIC50 is < 4.52.

`CC1Cc2nc3c(c(NC(=O)N=S(N)(=O)c4cnc(C(C)(C)O)s4)c2C1)CCC3` (centres unmarked) [Compound 152, 2-(2-hydroxypropan-2-yl)-N′-((2-methyl-1,2,3,5,6,7-hexahydrodicyclopenta[b,e]pyridin-8-yl)carbamoyl)thiazole-5-sulfonimidamide] was tested. Which pIC50 [7] did it give?
The pIC50 was 6.00 to 6.70.

`CC(C)(O)c1csc(S(N)(=O)=NC(=O)Nc2c3c(nc4c2CCC4(C)C)CCC3)c1` (centres unmarked) [Compound 127, N′-((3,3-dimethyl-1,2,3,5,6,7-hexahydrodicyclopenta[b,e]pyridin-8-yl)carbamoyl)-4-(2-hydroxypropan-2-yl)thiophene-2-sulfonimidamide] was tested. Which pIC50 [7] did it give?
Its pIC50 is 6.70 to 7.40.

How did the pIC50 [1] turn out when `CC1(C)CCc2c1nc1c(c2NC(=O)N=S(N)(=O)c2cnc(C(C)(O)CO)s2)CCC1` (single isomer, unassigned) [Compound 201c, (S, S) or (R, S) or (S, R) or (R. R)-2-(1,2-Dihydroxypropan-2-yl)-N′-((3,3-dimethyl-1,2,3,5,6,7-hexahydrodicyclopenta [b,e]pvridin-8-yl)carbamoyl) thiazole-5-sulfonimidamide] was run?
Its pIC50 is 4.52 to 5.30.

With `CC(C)(O)c1sc(S(N)(=O)=NC(=O)Nc2c3c(nc4c2CCC42CC2)CCC3)cc1F` (single isomer, unassigned) [Compound 614a, (R) or (S)-4-Fluoro-5-(2-hydroxypropan-2-yl)-N′-((1′,5′,6′,7′-tetrahydro-2′H-spiro[cyclopropane-1,3′-dicyclopenta[b,e]pyridin]-8′-yl)carbamoyl) thiophene-2-sulfonimidamide] as the molecule, how does the pIC50 [1] read?
The pIC50 was 6.70 to 7.40.

With `CC1(C)CCc2c1nc1c(c2NC(=O)N=[S@](N)(=O)c2cc([C@@](C)(O)CO)cs2)CCC1` [Example 654, (S)-4-((R)-1,2-dihydroxypropan-2-yl)-N′-((3,3-dimethyl-1,2,3,5,6,7-hexahydrodicyclopenta[b,e]pyridin-8-yl)carbamoyl) thiophene-2-sulfonimidamide] as the molecule, how does the pIC50 (Homo sapiens, THP-1, Table B3, hTHP-1 assay, class symbols, read-out: IC50) read?
Its pIC50 is 4.52 to 5.30.

With `COCc1nc(C(C)(C)O)sc1S(N)(=O)=NC(=O)Nc1c2c(nc3c1CCC3(C)C)CCC2` (single isomer, unassigned) [Compound 170a] as the molecule, how does the pIC50 [1] read?
The pIC50 was 6.00 to 6.70.

How did the pIC50 (Table B3, hTHP-1 assay, class symbols, listed as Compound 984b, read-out: IC50) turn out when `NS(=O)(=NC(=O)Nc1c2c(nc(C(F)(F)F)c1C1CC1)CCC2)c1nn(C(F)F)cc1F` (centres unmarked) [Compound 984b] was run?
The pIC50 was 6.70 to 7.40.

With `CC(C)c1ncc(F)c(C(C)C)c1NC(=O)N=S(N)(=O)c1cc(C(C)(C)O)cs1` (single isomer, unassigned) [Compound 148a, (R) or (S)-N′-((5-fluoro-2,4-diisopropylpyridin-3-yl)carbamoyl)-4-(2-hy-droxypropan-2-yl)thiophene-2-sulfonimidamide] as the molecule, how does the pIC50 [2] read?
The pIC50 was 6.00 to 6.70.

`CCc1cc(NC(=O)N=S(N)(=O)c2cnc(C(C)(C)O)s2)c2c(n1)CCC2` (single isomer, unassigned) [Compound 137a, (R) or (S)-N′-((2-ethyl-6,7-dihydro-5H-cyclopenta[b]pyridin-4-yl)carbamoyl)-2-(2-hydroxypropan-2-yl)thiazole-5-sulfonimidamide] was tested. Which pIC50 (Table B1, numeric bounds, read-out: Average IC50 of compounds in hTHP-1 assay: hTHP-1 IC50) did it give?
Its pIC50 is < 5.00.

`CC(C)c1nc(CO)c(S(N)(=O)=NC(=O)Nc2c3c(nc4c2CCC4(C)C)CCC3)s1` (centres unmarked) [Compound 680, N′-((3,3-dimethyl-1,2,3,5,6,7-hexahydrodicyclopenta[b,e]pyridin-8-yl)carbamoyl)-4-(hydroxymethyl)-2-isopropylthiazole-5-sulfonimidamide] was tested. Which pIC50 [3] did it give?
Its pIC50 is 5.30 to 6.00.

`CC1CCc2c1nc1c(c2NC(=O)N=S(N)(=O)c2ncc(C(C)(C)O)s2)CCC1` (single isomer, unassigned) [Compound 140a, (R,R/S) or (S,R/S)-5-(2-hydroxypropan-2-yl)-N′-((3-methyl-1,2,3,5,6,7-hexa-hydrodicyclo-penta[b,e]pyridin-8-yl)carbamoyl)thiazole-2-sulfonimidamide] was tested. Which pIC50 [2] did it give?
Its pIC50 is 6.70 to 7.40.

`Cc1c(CC(F)(F)F)nc2c(c1NC(=O)N=S(N)(=O)c1nn(C(F)F)cc1F)CCC2` (single isomer, unassigned) [Example 724, (S) or (R)-1-(difluoromethyl)-4-fluoro-N′-((3-methyl-2-(2,2,2-trifluoroethyl)-6,7-dihydro-5H-cyclopenta[b]pyridin-4-yl)carbamoyl)-1H-pyrazole-3-sulfonimidamide] was tested. Which pIC50 [8] did it give?
The pIC50 was < 4.52.

`NS(=O)(=NC(=O)Nc1c2c(nc3c1CCC3)CCC2)c1ccn(CC(F)(F)F)n1` (single isomer, unassigned) [Compound 685a, (S) or (R)-N′-((1,2,3,5,6,7-hexahydrodicyclopenta [b,e]pyridin-8-yl)carbamoyl)-1-(2,2,2-trifluoroethyl)-1H-pyrazole-3-sulfonimidamide] was tested. Which pIC50 [4] did it give?
The pIC50 was < 4.52.

`Cc1c(C(F)(F)F)nc2c(c1NC(=O)N=S(N)(=O)c1ccn(C)n1)CCC2` (centres unmarked) [Compound 730] was tested. Which pIC50 [3] did it give?
The pIC50 was 4.52 to 5.30.

`CC(C)(O)c1cnc(S(N)(=O)=NC(=O)Nc2c3c(nc4c2CCC4)CCC3)s1` (single isomer, unassigned) [Compound 167a, (S) or (R)-N′-((1,2,3,5,6,7-hexahydrodicyclo-penta[b,e]pyridin-8-yl)carbamoyl)-5-(2-hydroxypropan-2-yl)thiazole-2-sulfonimidamide] was tested. Which pIC50 [2] did it give?
Its pIC50 is 4.52 to 5.30.

`Cc1c(C2CC2)nc2c(c1NC(=O)N=S(N)(=O)c1cc(C(C)(C)O)cs1)CCC2C` (single isomer, unassigned) [Compound 656b, (S, S) or (S, R) or (R, S) or (R, R)-N′-((2-Cyclopropyl-3,7-dimethyl-6,7-dihydro-5H-cyclopenta[b]pyridin-4-yl)carbamoyl)-4-(2-hydroxypropan-2-yl)thiophene-2-sulfonimidamide] was tested. Which pIC50 [1] did it give?
The pIC50 was 4.52 to 5.30.

`NS(=O)(=NC(=O)Nc1c2c(nc3c1CCC31CC1)CCC2)c1ccn(CCO)n1` (single isomer, unassigned) [Example 648, (S) or (R)-1-(2-hydroxyethyl)-N′-((1′,5′,6′,7′-tetrahydro-2′H-spiro[cyclopropane-1,3′-dicyclopenta[b,e]pyridin]-8′-yl)carbamoyl)-1H-pyrazole-3-sulfonimidamide] was tested. Which pIC50 [5] did it give?
Its pIC50 is 4.52 to 5.30.

With `Cc1c(-c2ccccc2)nc2c(c1NC(=O)N=S(N)(=O)c1cnc(C(C)(C)O)s1)CCC2` (centres unmarked) [Compound 143, 2-(2-hydroxypropan-2-yl)-N′-((3-methyl-2-phenyl-6,7-dihydro-5H-cyclopenta[b]pyridin-4-yl)carbamoyl)thiazole-5-sulfonimidamide] as the molecule, how does the pIC50 [6] read?
The pIC50 was < 4.52.

How did the pIC50 [8] turn out when `CC(C)n1nc(S(N)(=O)=NC(=O)Nc2c3c(nc4c2CC[C@H]4C)CCC3)cc1CO` (single isomer, unassigned) [Example 644, (S) or (R)-5-(hydroxymethyl)-1-isopropyl-N′-(((R)-3-methyl-1,2,3,5,6,7-hexahydrodicyclopenta[b,e]pyridin-8-yl)carbamoyl)-1H-pyrazole-3-sulfonimidamide] was run?
Its pIC50 is < 4.52.
